Measured values published in patent US20130090315A1 (priority 2011, published 2013).

What was measured:
rats following injury = details: cited from earlier work
rats suffering from TBI = details: 16 mg/kg, 72 hours post-injury, FIG. 1, p<0.05; cited from earlier work
males = details: in males; cited from earlier work
[1] = test system: moderate to severe TBI patients; details: cited from earlier work
[2] = test system: rats that have suffered a concussion; test: Morris Water Maze latency to platform in mTBI (concussion) model; assay type: in vivo; details: versus vehicle-injured rats, FIG. 8
[3] = target: T1, progesterone receptor (PR) (Homo sapiens, UniProt P06401); details: cited from earlier work
T1 sequence (P06401 1-933): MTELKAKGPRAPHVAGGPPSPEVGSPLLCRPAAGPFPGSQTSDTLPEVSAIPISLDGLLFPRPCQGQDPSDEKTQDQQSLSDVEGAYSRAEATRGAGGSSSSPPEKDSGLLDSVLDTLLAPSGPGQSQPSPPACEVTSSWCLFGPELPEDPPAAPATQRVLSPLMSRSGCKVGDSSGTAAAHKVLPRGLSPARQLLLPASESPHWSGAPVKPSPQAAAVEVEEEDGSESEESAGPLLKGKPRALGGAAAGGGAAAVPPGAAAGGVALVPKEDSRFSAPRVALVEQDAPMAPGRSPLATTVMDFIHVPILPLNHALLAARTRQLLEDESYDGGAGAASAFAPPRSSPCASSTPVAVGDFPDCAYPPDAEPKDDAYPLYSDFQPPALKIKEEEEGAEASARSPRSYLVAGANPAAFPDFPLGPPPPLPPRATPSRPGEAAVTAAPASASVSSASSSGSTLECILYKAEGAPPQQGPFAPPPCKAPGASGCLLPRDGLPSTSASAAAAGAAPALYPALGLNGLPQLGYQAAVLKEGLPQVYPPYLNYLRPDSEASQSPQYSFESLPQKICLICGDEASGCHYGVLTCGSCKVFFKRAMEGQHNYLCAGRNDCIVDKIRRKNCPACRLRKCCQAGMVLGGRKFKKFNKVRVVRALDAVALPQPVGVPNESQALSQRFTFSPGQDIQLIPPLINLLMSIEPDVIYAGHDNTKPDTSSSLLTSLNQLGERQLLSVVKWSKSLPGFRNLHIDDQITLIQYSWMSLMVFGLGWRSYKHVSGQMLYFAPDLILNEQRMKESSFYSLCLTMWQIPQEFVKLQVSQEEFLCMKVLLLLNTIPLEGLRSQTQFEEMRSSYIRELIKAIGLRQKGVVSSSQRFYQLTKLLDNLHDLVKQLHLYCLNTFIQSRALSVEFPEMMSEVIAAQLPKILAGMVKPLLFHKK

glutathione reductase = details: 72 hours post-injury, compared to all other groups, FIG. 2, p<0.01; cited from earlier work

| SMILES | factors of cell death (caspase-3) and gliosis (GFAP) (rats following injury) | brain water content (measure of edema) (rats suffering from TBI) | conversion of testosterone to dihydrotestosterone (males) | size of reproductive organs (males) | spermatogenesis (males) | edema in both rodent sexes (rats following injury; both rodent sexes) | inflammatory factors (TNF-α and IL-β) (rats following injury) | Neurological Severity Score (motor and cognitive functioning) (rats following injury; rats) | 30 days post-injury outcomes (Glasgow Outcome Scale-Extended, Disability Rating Scale), moderate TBI ([1]; moderate TBI patients, 30 days post-injury) | reduction in mortality ([1]; moderate to severe TBI patients, 72 hours of continuous intravenous Prog) [%] | 30 days post-injury outcomes (Glasgow Outcome Scale-Extended, Disability Rating Scale), severe brain injuries ([1]; patients with severe brain injuries, 30 days post-injury) | neurological outcomes at six months ([1]; severe TBI patients, six months) | latency to platform, post-acute administration ([2]; 15 minutes post mTBI) | latency to platform, prophylactic administration ([2]; 15 minutes prior to mTBI) | activation of PR-mediated transcription [3] | anti-oxidant activity of glutathione reductase (glutathione reductase) |
| --- | --- | --- | --- | --- | --- | --- | --- | --- | --- | --- | --- | --- | --- | --- | --- | --- |
| CC(=O)[C@H]1CC[C@H]2[C@@H]3CC[C@H]4C[C@H](O)CC[C@]4(C)[C@H]3CC[C@]12C [ALLO, allopregnanolone] | decreased of the presence of the factors of cell death (caspase-3) and gliosis (GFAP) | normalizes brain water content | – | – | – | – | – | – | – | – | – | – | – | – | – | – |
| CC(=O)[C@H]1CC[C@H]2[C@@H]3CCC4=CC(=O)CC[C@]4(C)[C@H]3CC[C@]12C [Prog, progesterone] | decreased of the presence of the factors of cell death (caspase-3) and gliosis (GFAP) | normalizes brain water content | inhibits the conversion of testosterone to dihydrotestosterone | reduces the size of reproductive organs | suppresses spermatogenesis | effectively attenuates edema | inhibiting inflammatory factors (TNF-α and IL-β) | significant improvements | better outcomes | 50 | little measurable difference | better neurological outcomes long-term | decreases latency to platform | decreases latency to platform | – | – |
| CC(=O)[C@@H]1CC[C@@H]2[C@H]3CCC4=CC(=O)CC[C@@]4(C)[C@@H]3CC[C@]21C [ent-Prog, ent-progesterone] | – | normalizes brain water content | – | – | – | – | – | – | – | – | – | – | – | – | does not activate PR-mediated transcription | significantly increases the anti-oxidant activity of glutathione reductase |
